Active and inactive are the calls of the source.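 How the source made its calls: active means IC50 of 20 µM or lower; inactive means the rest.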
System: HL-1 cardiomyocytes, H2O2 injury, ATP luminescence, 2 h
Assay: protection of HL-1 cardiomyocytes from peroxide injury, dose response, cell-based, ATP luminescence (AID 602215);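 further: potency is for protection so actives raise ATP signal against peroxide damage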

Compound	IC50
COc1cc(C(=O)NCC(=O)N/N=C/c2ccc(-c3cccc([N+](=O)[O-])c3)o2)cc(OC)c1OC	9.15 µM
CC12C=CC(=O)CC1CCC1C2CCC2(C)C(O)C(O)CC12 (configuration not stated)	> 79 µM (inactive)
CN(C)S(=O)(=O)c1ccc2[nH]cc(/C=C/c3nc4ccccc4c(=O)n3-c3ccccc3)c2c1	> 79 µM (inactive)
COC(=O)c1[nH]c2ccccc2c1NC(=O)CNC1CCCCC1	> 79 µM (inactive)
Cc1cccc(NC(=O)c2nc[nH]c2C(=O)NCCCCNC(=O)c2[nH]cnc2C(=O)Nc2cccc(C)c2)c1	> 79 µM (inactive)
O=C(CCCN1C(=O)c2cccc3cccc(c23)C1=O)N1CCN(c2ccccc2O)CC1	7.51 µM
O=[N+]([O-])c1ccc(Nc2nc(N/N=C/c3cccc(F)c3)nc(N3CCCC3)n2)cc1	> 79 µM (inactive)
COc1ccc(-n2cc(-c3ccccc3)c3c(N4CCOCC4)ncnc32)cc1	> 79 µM (inactive)
CCOc1ccc(-n2cc(-c3ccccc3)c3c(N4CCOCC4)ncnc32)cc1	24 µM (inactive)
CC(C)(C)OC(=O)CNC(=O)c1[nH]cnc1C(=O)NCC(=O)OCc1ccccc1	28.2 µM (inactive)
COc1cc(C(=O)N/N=C/c2sc(N3CCOCC3)nc2-c2ccccc2)cc(OC)c1OC	48.4 µM (inactive)
COc1cccc(Nc2nc3ccccc3n3cnnc23)c1	> 79 µM (inactive)
CCOc1ccc2nc(NC(=O)CN3CCC(n4nnc5cc(F)ccc54)CC3)sc2c1	> 79 µM (inactive)
COc1cc(C(=O)N/N=C/c2ccc(OC(=O)c3cccc(C)c3)c(OC)c2)ccc1O	31.2 µM (inactive)
O=C(CN(c1ccc2c(c1)OCCO2)S(=O)(=O)c1ccccc1)Nc1ccc2c(c1)OCO2	> 79 µM (inactive)
COc1ccc(-c2csc(NC(=O)c3ccc(OCC(=O)N4CCOCC4)c(OC)c3)n2)cc1OC	12.3 µM
O=C(CN1CCN(c2ccccn2)CC1)Nc1ccc([N+](=O)[O-])cc1C(=O)Nc1ccccc1F	> 79 µM (inactive)
CC(=O)c1cccc(Nc2nc3ccccc3n3cnnc23)c1	> 79 µM (inactive)
C[C@H](NC(=O)c1nc[nH]c1C(=O)NCC(=O)OCc1ccccc1)c1ccccc1	> 79 µM (inactive)

Compound	IC50
CCCNC(=O)c1ccc(N2CCC3(CC2)CC(c2ccccc2)=NO3)c(NC(=O)c2ccco2)c1	3.22 µM
Cc1cc(C)c2c(N)c(C(=O)N/N=C/c3cccnc3)sc2n1	> 79 µM (inactive)
COc1cc(-c2cc3nc(NCCc4ccc(S(N)(=O)=O)cc4)ccn3n2)cc(OC)c1OC	15.1 µM
Cc1[nH]c2ccccc2c1/C=N/NC(=O)c1cc(-c2ccccc2)n[nH]1	> 79 µM (inactive)
COc1cc(-c2cc3nc(NCCOc4ccccc4)ccn3n2)cc(OC)c1OC	> 79 µM (inactive)
COc1cccc(-c2cnc3c(NC=O)cc(-c4cccc(NC(C)=O)c4)cn23)c1	> 79 µM (inactive)
COc1ccc(-c2cc(-c3nnc(COC(=O)C4CC4C)o3)c3ccccc3n2)cc1OC (configuration not stated)	3.49 µM
CC(=O)Nc1cc(-c2cccc(NS(C)(=O)=O)c2)cn2c(-c3cccc(C(C)=O)c3)cnc12	11.4 µM
COc1ccc(-c2nn(-c3ccccc3)cc2C(=O)Nc2nccs2)cc1	13.7 µM
CC(=O)Nc1ccc(C(=O)N/N=C/c2ccccc2OC(=O)c2ccc(Cl)cc2)cc1	> 79 µM (inactive)
COc1cc(-c2cc(C(=O)Nc3ccccc3N3CCOCC3)c3ccccc3n2)cc(OC)c1OC	4.24 µM
COc1ccc(N(CC(=O)Nc2cccc(C(C)=O)c2)S(=O)(=O)c2ccc(NC(C)=O)cc2)cc1	> 79 µM (inactive)
CS(=O)(=O)c1ccc(-c2cnc3c(NC=O)cc(-c4ccsc4)cn23)cc1	8.73 µM
COc1ccc(-c2cc(C(=O)N(C)Cc3nc4ccccc4c(=O)[nH]3)c3ccccc3n2)cc1OC	21.3 µM (inactive)
Cc1ccccc1N(C(=O)c1snc(C(N)=O)c1N)C(C(=O)NCc1ccccc1)c1ccc(O)cc1 (configuration not stated)	15.9 µM
O=C(Nc1cc(S(=O)(=O)N2CCOCC2)ccc1N1CCCCC1)c1cc(-c2ccccn2)nc2ccccc12	3.6 µM
COc1cc(-c2cc(NC(C)=O)c3ncc(-c4ccc(C(C)=O)cc4)n3c2)cc(OC)c1OC	> 79 µM (inactive)
COc1ccc(-c2cc(NC=O)c3ncc(-c4ccc(C(C)=O)cc4)n3c2)cn1	> 79 µM (inactive)
